# Experimental data published in US20180085356A1, “METHOD OF TREATING DISEASE CHARACTERISED BY PROTEIN AGGREGATE DEPOSITION IN NEURONAL CELLS” (CHRONOS THERAPEUTICS LIMITED, priority 2013, published 2018).
# Key:
# TDP-43 = test: Motor neuron culture with Aβ1-42 insult: extranuclear TDP-43 accumulation; assay type: cell-based, rat
# Method: Primary motor neuron (MN) cultures generated from rat spinal cord were treated with 20 μM amyloid beta 1-42 peptide (Aβ1-42). […] This model was used to determine the effect of tacrolimus on TDP-43 toxicity in motor neurons. […] After permeabilisation with 0.1% saponin, one group of cells was incubated for 2 hours with a) mouse monoclonal anti-microtubule-associated-protein 2 (MAP-2) antibody, and b) rabbit polyclonal anti-TDP-43 antibody. The anti-MAP-2 antibody was used to determine MN survival (number of stained MN) and MN neurite length. The anti-TDP-43 antibody was used to examine extranuclear TDP-43: the area of extranuclear TDP-43 staining per MN was calculated by normalising to the number of MAP-2 positive cells.
# caspase-3 = test: Motor neuron culture with Aβ1-42 insult: caspase-3 induction; assay type: cell-based, rat; conditions: all 3 concentrations, greatest effect at 100 nM; control increased by 91%
# Method: Primary motor neuron (MN) cultures generated from rat spinal cord were treated with 20 μM amyloid beta 1-42 peptide (Aβ1-42). This insult causes an acute increase in TDP-43 levels in the cells and serves as a model for the TDP-43 mislocalisation, aggregation and toxicity observed in the motor neurons of ALS patients (reviewed in Callizot et al, poster “Amyloid peptide and cytoplasmic TDP-43 accumulation in pathogenesis of ALS: an in vitro study”, http://www.neuro-sys.fr/IMG/pdf/poster_adpd2017_tdp43.pdf). This model was used to determine the effect of tacrolimus on TDP-43 toxicity in motor neurons.
# A separate group of cells was incubated with a) mouse monoclonal anti-microtubule-associated-protein 2 (MAP-2) antibody, and b) rabbit polyclonal anti-caspase-3 antibody. This group was used to determine the number of caspase-3-positive MN, i.e. the number of overlapping MAP-2 and caspase-3-positive cells.
# TDP-43(Q331K) mice = test: Rotarod testing of TDP-43(Q331K) transgenic mice; assay type: in vivo, mouse; conditions: tacrolimus 0.25, 1.25 and 2.5 mg/kg p.o. 6 days a week for 70 weeks vs. vehicle
# ALS = conditions: Pong et al., Current Drug Targets 2003; cited from earlier work
# [1] = system: α-synuclein and phospho-Tau (p-Tau); test: Immunohistochemistry for α-synuclein and p-Tau in SNc of 6-OHDA-lesioned rats; assay type: in vivo, rat; conditions: 1 mg/kg s.c., 3 months; p<0.05 vs. vehicle
# Method: After 3 months, 10 randomly selected rats (5 from each group) were terminally anaesthetised. Blood and striatal tissue samples were taken and the posterior brain block containing the SNc was fixed by immersion in 4% paraformaldehyde in 0.1 M phosphate buffer (PB) for 24 hours. Following cryoprotection in 30% sucrose in 0.1M PB for 2-3 days and freezing the blocks in liquid nitrogen, samples were stored at −80° C. for α-synuclein and phospho-Tau (p-Tau) immunohistochemistry (IHC). This was repeated for 11 rats at 6 months (randomly selected from the surviving rats in both groups). Immunohistochemistry for α-synuclein and p-Tau was carried out. Brain samples containing the SNc region were double-immunostained for p-Tau (AT8) and α-synuclein. The number of positive cells for each single stain and the number of double-stained cells was manually counted for 6 sections per animal.
# S. cerevisiae = test: Chronological lifespan of ageing stationary phase yeast culture (outgrowth viability); assay type: cell-based, Saccharomyces cerevisiae; conditions: 40 μM tacrolimus
# Method: Analysis of chronological lifespan in yeast involves assessment of the viability of a stationary phase culture over time. Yeast are stored in glycerol stocks at −80° C., inoculated into YPD (Yeast extract-Peptone-Dextrose) and incubated overnight. From this culture, a 1/25 dilution is prepared to produce an ageing culture that is incubated at 30° C. throughout the duration of the experiment. The first 24 hours of yeast growth are assessed in Complete Synthetic Media (CSM) to confirm that the culture has reached stationary phase. After 24 hours, when the culture has completed the exponential growth phase and has entered stationary phase, its viability can then be assessed. Viability is measured by taking a 5 μl sample of the ageing culture and diluting this into a total volume of 150 μlYPD. Growth of this “outgrowth culture” is measured using the Bioscreen-C MBR machine that both incubates the plates and measures optical turbidity every 20 minutes. Comparison of the viability curves of outgrowth cultures taken over several successive days can be used to observe the reduction in viability of the stationary phase culture over time. Specifically, the interval between the time taken for the outgrowth culture to reach OD600=0.6 on day 1, and the time taken to reach OD600=0.6 on a later day (for example day 7) can be used as a measure of the “ageing rate” of the culture. […]
# TNF-α = test: Blood TNF-α levels in healthy human volunteers given tacrolimus capsule; assay type: in vivo
# Method: A hard gelatine capsule was filled with the following composition:
# One capsule as above containing 0.3 mg tacrolimus was administered daily to healthy human volunteers for three successive days. […] Similarly, no change in TNF-α levels occurred as a result of administering 0.6 mg daily of tacrolimus to healthy volunteers. The average trough level of tacrolimus (level after 24 hours of administration of each dose) observed was approximately 220 pg/ml.
smiles,measurement,setting,value
"C=CC[C@@H]1/C=C(\C)C[C@H](C)C[C@H](OC)[C@H]2O[C@@](O)(C(=O)C(=O)N3CCCC[C@H]3C(=O)O[C@H](/C(C)=C/[C@@H]3CC[C@@H](O)[C@H](OC)C3)[C@H](C)[C@@H](O)CC1=O)[C@H](C)C[C@@H]2OC [tacrolimus, Tacrolimus]",increase of TDP-43:MN ratio in response to Aβ1-42 insult relative to unchallenged cells,"TDP-43; 100 nM tacrolimus, 24 hours, control cells increased by 191%",35%
same,TDP-43 levels normalised to motor neuron number (TDP-43:MN ratio),"TDP-43; all 3 concentrations, 24 hours after Aβ1-42 insult",significantly reduced TDP-43 levels
same,caspase-3 levels in response to Aβ1-42 insult,caspase-3,increase was less
same,progression of motor decline (rotarod latency),TDP-43(Q331K) mice,delays the progression of motor decline
same,efficacy in the treatment of ALS,ALS,ineffective
same,number of cells staining positively for p-Tau,[1],lower counts of positive cells
same,number of cells staining positively for α-synuclein,[1],lower counts of positive cells
same,rate of ageing / chronological lifespan of stationary phase yeast culture,S. cerevisiae,significantly delays the rate of ageing and extends the chronological lifespan
same,interval between the x-intercepts at OD600=0.6 on days 1 and 9,S. cerevisiae; control without tacrolimus 287 minutes,63 min
same,blood TNF-α levels,TNF-α; 0.3 mg capsule daily for three successive days,No significant changes
same,TNF-α levels,TNF-α; 0.6 mg daily,no change
